Values after ≈ are worked out from the molar mass of the structure shown. Where two headings read alike, the source gives them in different places.
What was measured:
Candida krusei = Candida krusei - ATCC6258 - reference strain
Procedure: (§1) Bacterial and fungal isolates used in this study were from various sources worldwide stored at GR Micro Ltd. and maintained, with minimal sub-culture, deep frozen at −70° C. as a dense suspension in a high protein matrix of undiluted horse serum.
(§2) Minimum inhibitory concentration (MIC) of LTX-109 was determined using the following microbroth dilution methods for antimicrobial susceptibility testing published by the Clinical and Laboratory Standards Institute (CLSI, formerly NCCLS): • M7-A6 Vol. 23 No. 2 Jan. 2003 Methods for Dilution Antimicrobial Susceptibility Tests for Bacteria that Grow Aerobically; Approved Standard-Sixth Edition. National Committee for Clinical Laboratory Standards. • M100-S15 Vol. 25 No 1. January 2005 Performance Standards for Antimicrobial Susceptibility Testing; Fifteenth Informational Supplement. Clinical and Laboratory Standards Institute • M11-A6 Vol. 24 No. 2 Methods for Antimicrobial Susceptibility Testing of Anaerobic Bacteria; Approved Standard-Sixth Edition. National Committee for Clinical Laboratory Standards. • M27-A2 Vol. 22 No. 15 Reference Method for Broth Dilution Antifungal Susceptibility Testing of Yeasts; Approved Standard-Second Edition. National Committee for Clinical Laboratory Standards. • M38-A Vol. 22 No. 16 Reference Method for Broth Dilution Antifungal Susceptibility Testing of Filamentous Fungi; Approved Standard. National Committee for Clinical Laboratory Standards.
(§3) MIC estimations were performed using wet plates, containing the LTX-109, prepared at GR Micro Ltd.
(§4) Yeast and filamentous fungal MIC were performed in MOPS buffered RPMI 1640 medium (MOPS buffer obtained from Sigma Aldrich Ltd., RPMI 1640 obtained from Invitrogen Ltd, Paisley, Scotland). The yeast inocula were in the range 7.5×10^2-4×10^3 CFU/mL and the filamentous fungi approximately 8×10^3-1×10^5 CFU/mL.
(§5) Following normal practice all the plates containing Mueller-Hinton broth were prepared in advance, frozen at −70° C. on the day of preparation and defrosted on the day of use. Fungal, Haemophilus and anaerobic MIC determinations were all performed in plates prepared on the same day.

Aspergillus niger = Aspergillus niger - G. R. Micro collection
Procedure: as §1, §2, §3, §4, §5

Candida albicans = test system: Candida albicans
Procedure: as §1, §2, §3, §4, §5

Candida tropicalis = Candida tropicalis - ATCC750 - reference strain
Procedure: as §1, §2, §3, §4, §5

Candida parapsilosis = Candida parapsilosis - ATCC90018 - reference strain
Procedure: as §1, §2, §3, §4, §5

[1] = test system: Influenza A strain A/WSN/33 (H1N1); assay type: cell-based, Influenza A virus
Mycoplasma pneumoniae = conditions: both of the library strains of Mycoplasma pneumoniae
Procedure: Two library strains of Mycoplasma pneumoniae were used. These strains were stored at GR Micro Ltd. and maintained, with minimal sub-culture, deep frozen at −70° C. as a dense suspension in a high protein matrix of undiluted horse serum.
MIC determination was carried out using a broth microdilution method in Mycoplasma Broth Base (Oxoid Ltd, Hampshire, UK), prepared according to the manufacturer's instructions.

MDCK-II cells = conditions: 1% LTX-7 (w/v) or 0.2% Triton X-100 in PBS, contact time 1 h, after filtration, no virus
Procedure: (§7) A parallel test where the same procedure was carried out in the absence of virus was included to determine any residual cytotoxic effect of LTX-7 on the assay cells.

HeLaM cells = conditions: 1% LTX-7 (w/v) or 0.25% SDS in PBS, contact time 1 h, after filtration, no virus
Procedure: as §7

[2] = test system: Rhinovirus (HRV-A60), Strain: 2268-CV37; assay: TCID50 assay after 1 h incubation of virus with LTX-7 (Example 10); assay type: cell-based; conditions: 1% LTX-7 or 0.25% SDS; for % Reduction: Rhinovirus infectivity; for % Reduction / Log decrease: compared to PBS control; for Log decrease: Rhinovirus
Moraxella catarrhalis = test system: Moraxella catarrhalis
Procedure: as §1, §2, §3
(§6) Cation-adjusted Mueller-Hinton broth (Oxoid Ltd., Basingstoke, UK and Trek Diagnostic Systems Ltd., East Grinstead, UK) (supplemented with 5% laked horse blood for Streptococcus spp.) was used for aerobic bacteria, with an initial inoculum of approximately 10^5 colony-forming units (CFU)/mL.
as §5

Streptococcus pyogenes = Streptococcus pyogenes - macrolide (MLS) resistant clinical isolate
Procedure: as §1, §2, §3, §6, §5

Streptococcus pneumoniae = test system: Streptococcus pneumoniae
Procedure: as §1, §2, §3, §6, §5

[3] = test system: SARS-CoV-2 isolate England/02/2020; assay type: cell-based
Vero cells = assay: Parallel test without virus for residual cytotoxicity (Example 8); conditions: 1% LTX-12 (w/v) or 0.2% Triton in PBS, contact time 1 h, after filtration, no virus
HeLa cells [4] = assay: Parallel test without virus for residual cytotoxicity (Example 7); assay type: cell-based, human; conditions: 3% LTX-109 (w/v) or 0.25% SDS, after dilution (50 μl in 5 ml), no virus
Procedure: (§8) A parallel test where the same procedure was carried out in the absence of virus was included to determine any residual cytotoxic effect of the formulation on the assay cells.

Rhinovirus 60, 2268-CV37 [5] = assay: TCID50 assay after 1 h incubation of virus with 3% LTX-109, stopped by dilution (Example 7); assay type: cell-based
HeLa cells [6] = conditions: 1% LTX-109 (w/v) or 0.25% SDS, after filtration, no virus, dilution showing cytotoxicity
Procedure: as §8

Rhinovirus 60, 2268-CV37 [7] = assay: TCID50 assay after 1 h incubation of virus with 1% LTX-109 (Example 6); assay type: cell-based

Compound: N=C(N)NCCCC(N)C(=O)NC(Cc1ccc(-c2ccc3ccccc3c2)cc1)C(=O)NC(CCCNC(=N)N)C(=O)NCCc1ccccc1 (stereo not drawn) [LTX-7, Arg-Phe(4-(2-Naphthyl))-Arg-NH—CH2—CH2-Ph]
- MIC (Candida krusei): 4 µg/mL (≈ 5.66 µM)
- MIC (Aspergillus niger): 4 µg/mL (≈ 5.66 µM)
- MIC (Candida albicans; Candida albicans - ATCC24433 - reference strain): 2 µg/mL (≈ 2.83 µM)
- MIC (Candida albicans; Candida albicans - ATCC90028 - reference strain): 2 µg/mL (≈ 2.83 µM)
- MIC (Candida tropicalis): 2 µg/mL (≈ 2.83 µM)
- MIC (Candida parapsilosis): 4 µg/mL (≈ 5.66 µM)
- % Reduction [1]: 99.9988%
- MIC (Mycoplasma pneumoniae): 32 µg/mL (≈ 45.3 µM)
- Cytotoxicity (MDCK-II cells): neat
- Cytotoxicity (HeLaM cells): Neat
- % Reduction [2]: 95.791%
- Log decrease [2]: 1.33 log
- MIC (Moraxella catarrhalis; Moraxella catarrhalis - reduced fluoroquinolone susceptibility clinical isolate): 8 µg/mL (≈ 11.3 µM)
- MIC (Moraxella catarrhalis; Moraxella catarrhalis - β-lactamase positive clinical isolate): 4 µg/mL (≈ 5.66 µM)
- MIC (Streptococcus pyogenes): 32 µg/mL (≈ 45.3 µM)
- MIC (Streptococcus pneumoniae; Streptococcus pneumoniae - penicillin intermediate clinical isolate): 32 µg/mL (≈ 45.3 µM)
- MIC (Streptococcus pneumoniae; Streptococcus pneumoniae - penicillin resistant clinical isolate): 32 µg/mL (≈ 45.3 µM)

Compound: CC(C)(C)c1cc(C(C)(C)C)c2[nH]c(C(C)(C)C)c(CC(NC(=O)C(N)CCCCN)C(=O)NC(CCCCN)C(=O)NCCc3ccccc3)c2c1 (stereo not drawn) [LTX-12, Lys-Tbt-Lys-NH—CH2—CH2-Ph]
- % Reduction [3]: 99.977%
- Cytotoxicity (Vero cells): No cytotoxicity

Compound: CCCCCCCCCCCCOS(=O)(=O)[O-].[Na+] [SDS, Sodium dodecyl sulphate]
- Cytotoxicity (HeLa cells [4]): Neat
- TCID50/ml ± SEM (Rhinovirus 60, 2268-CV37 [5]; Rhinovirus titre recovered after 1 hour with 3% LTX-109 (w/v) or 0.25% SDS, dilution, no filter, HeLa cells, 7 days): 1.58E+01 TCID50/ml
- Log decrease (Rhinovirus 60, 2268-CV37 [5]; Rhinovirus, 3% LTX-109 or 0.25% SDS, 1 hour, compared to PBS control): 3.0 log
- Percentage (Rhinovirus 60, 2268-CV37 [5]; decrease in Rhinovirus infectivity, 3% LTX-109 or 0.25% SDS, 1 hour, compared to PBS control): 99.91%
- Log (Rhinovirus 60, 2268-CV37 [5]; log of Rhinovirus titre after 1 hour with 3% LTX-109 or 0.25% SDS): 1.2
- Cytotoxicity (HeLa cells [6]): Neat
- Cytotoxicity (HeLaM cells): Neat
- % Reduction [2]: 99.983%
- Log decrease [2]: 3.67 log
- Rounded % ([2]; rounded % reduction of Rhinovirus infectivity): 99.9%
- TCID50/ml ± SEM (Rhinovirus 60, 2268-CV37 [7]; Rhinovirus titre recovered after 1 hour with 1% LTX-109 (w/v) or 0.25% SDS, filtration, HeLa cells, 7 days): 1.00E+02 TCID50/ml
- Log decrease (Rhinovirus 60, 2268-CV37 [7]; Rhinovirus, 1% LTX-109 or 0.25% SDS, 1 hour, compared to PBS control): 3.6 log
- Percentage (Rhinovirus 60, 2268-CV37 [7]; decrease in Rhinovirus infectivity, 1% LTX-109 or 0.25% SDS, 1 hour, compared to PBS control): 99.98%
- Log (Rhinovirus 60, 2268-CV37 [7]; log of Rhinovirus titre after 1 hour with 1% LTX-109 or 0.25% SDS): 2.0

From patent US20240148819A1, “COMPOUNDS FOR USE IN THE TREATMENT OF SINUSITIS, PNEUMONIA OR OTITIS” (PHARMA HOLDINGS AS, priority 2021, published 2024)
